Measured values published in ChEMBL document CHEMBL3885881, “DrugMatrix”.

Species on record: Rattus norvegicus
Assay: DrugMatrix - Regimen: Daily Repeat
Format: toxicity, organism-based, Sprague-Dawley
Set-up: regimen Daily Repeat, gender Male, age 6-8 weeks
Settings: in vivo, po, route oral GAVAGE, vehicle .5 % CMC; for BASOPHIL / EOSINOPHIL / ERYTHROCYTE COUNT / HEMATOCRIT / HEMOGLOBIN / LEUKOCYTE COUNT / LYMPHOCYTE / MEAN CORPUSCULAR HEMOGLOBIN / MEAN CORPUSCULAR HEMOGLOBIN CONCENTRATION / MEAN CORPUSCULAR VOLUME / MONOCYTE / NEUTROPHIL / PLATELET COUNT: tissue Blood; for ALANINE AMINOTRANSFERASE / ALBUMIN / ALKALINE PHOSPHATASE / ASPARTATE AMINOTRANSFERASE / BLOOD UREA NITROGEN / CHLORIDE / CHOLESTEROL / CREATINE PHOSPHOKINASE / CREATININE / GLUCOSE / PHOSPHORUS / POTASSIUM / SODIUM / TOTAL BILIRUBIN / TOTAL PROTEIN: tissue Plasma
[1] = 0 mg/kg, 72 h, dose level Control, time 3 day
[2] = 0 mg/kg, 120 h, dose level Control, time 5 day
[3] = 75 mg/kg, 72 h, dose level High, time 3 day
[4] = 75 mg/kg, 120 h, dose level High, time 5 day
[5] = […], 72 h, dose 7.5 mg/Kg, dose level Low, time 3 day
[6] = […], 120 h, dose 7.5 mg/Kg, dose level Low, time 5 day

COc1ccc(C2C(=O)c3ccccc3C2=O)cc1 [ANISINDIONE]
BASOPHIL [1]: 0% | EOSINOPHIL [1]: 0% | ERYTHROCYTE COUNT [1]: 6.19 x10E6/uL | HEMATOCRIT [1]: 36.94% | HEMOGLOBIN [1]: 14.58 G/DL | LEUKOCYTE COUNT [1]: 11.54 x10E3/uL | LYMPHOCYTE [1]: 84.8% | MEAN CORPUSCULAR HEMOGLOBIN [1]: 23.58 pg | MEAN CORPUSCULAR HEMOGLOBIN CONCENTRATION [1]: 39.44 G/DL | MEAN CORPUSCULAR VOLUME [1]: 59.76 fL | MONOCYTE [1]: 1.4% | NEUTROPHIL [1]: 13.8% | PLATELET COUNT [1]: 1068.8 x10E3/uL | ALANINE AMINOTRANSFERASE [1]: 38.17 u/L | ALBUMIN [1]: 3.88 G/DL | ALKALINE PHOSPHATASE [1]: 391.33 u/L | ASPARTATE AMINOTRANSFERASE [1]: 69.83 u/L | BLOOD UREA NITROGEN [1]: 15 mg/dL | CHLORIDE [1]: 104.17 MEQ/L | CHOLESTEROL [1]: 72.17 mg/dL | CREATINE PHOSPHOKINASE [1]: 174.33 u/L | CREATININE [1]: 0.58 mg/dL | GLUCOSE [1]: 192.67 mg/dL | PHOSPHORUS [1]: 10.52 mg/dL | POTASSIUM [1]: 6.8 MEQ/L | SODIUM [1]: 149.67 MEQ/L | TOTAL BILIRUBIN [1]: 0.78 mg/dL | TOTAL PROTEIN [1]: 6.28 G/DL | BASOPHIL [2]: 0% | EOSINOPHIL [2]: 0.17% | ERYTHROCYTE COUNT [2]: 6.72 x10E6/uL | HEMATOCRIT [2]: 40.02% | HEMOGLOBIN [2]: 15.83 G/DL | LEUKOCYTE COUNT [2]: 9.5 x10E3/uL | LYMPHOCYTE [2]: 87.17% | MEAN CORPUSCULAR HEMOGLOBIN [2]: 23.57 pg | MEAN CORPUSCULAR HEMOGLOBIN CONCENTRATION [2]: 39.62 G/DL | MEAN CORPUSCULAR VOLUME [2]: 59.55 fL | MONOCYTE [2]: 1.67% | NEUTROPHIL [2]: 11% | PLATELET COUNT [2]: 1053.67 x10E3/uL | ALANINE AMINOTRANSFERASE [2]: 26.33 u/L | ALBUMIN [2]: 4.02 G/DL | ALKALINE PHOSPHATASE [2]: 316.67 u/L | ASPARTATE AMINOTRANSFERASE [2]: 61.33 u/L | BLOOD UREA NITROGEN [2]: 18.67 mg/dL | CHLORIDE [2]: 108 MEQ/L | CHOLESTEROL [2]: 65.17 mg/dL | CREATINE PHOSPHOKINASE [2]: 161.17 u/L | CREATININE [2]: 0.75 mg/dL | GLUCOSE [2]: 177.33 mg/dL | PHOSPHORUS [2]: 9.72 mg/dL | POTASSIUM [2]: 6.18 MEQ/L | SODIUM [2]: 150.5 MEQ/L | TOTAL BILIRUBIN [2]: 0.68 mg/dL | TOTAL PROTEIN [2]: 6.55 G/DL | BASOPHIL [3]: 0% | EOSINOPHIL [3]: 0.33% | ERYTHROCYTE COUNT [3]: 6.08 x10E6/uL | HEMATOCRIT [3]: 36.9% | HEMOGLOBIN [3]: 14.87 G/DL | LEUKOCYTE COUNT [3]: 12.97 x10E3/uL | LYMPHOCYTE [3]: 73.67% | MEAN CORPUSCULAR HEMOGLOBIN [3]: 24.43 pg | MEAN CORPUSCULAR HEMOGLOBIN CONCENTRATION [3]: 40.3 G/DL | MEAN CORPUSCULAR VOLUME [3]: 60.63 fL | MONOCYTE [3]: 4.67% | NEUTROPHIL [3]: 21.33% | PLATELET COUNT [3]: 1074.33 x10E3/uL | ALANINE AMINOTRANSFERASE [3]: 32.33 u/L | ALBUMIN [3]: 3.7 G/DL | ALKALINE PHOSPHATASE [3]: 312.67 u/L | ASPARTATE AMINOTRANSFERASE [3]: 70.67 u/L | BLOOD UREA NITROGEN [3]: 16.67 mg/dL | CHLORIDE [3]: 102.67 MEQ/L | CHOLESTEROL [3]: 62.67 mg/dL | CREATINE PHOSPHOKINASE [3]: 163 u/L | CREATININE [3]: 0.7 mg/dL | GLUCOSE [3]: 161.33 mg/dL | PHOSPHORUS [3]: 10.17 mg/dL | POTASSIUM [3]: 6.4 MEQ/L | SODIUM [3]: 147 MEQ/L | TOTAL BILIRUBIN [3]: 0.57 mg/dL | TOTAL PROTEIN [3]: 5.87 G/DL | BASOPHIL [4]: 0% | EOSINOPHIL [4]: 0.5% | ERYTHROCYTE COUNT [4]: 6.19 x10E6/uL | HEMATOCRIT [4]: 36.1% | HEMOGLOBIN [4]: 14.4 G/DL | LEUKOCYTE COUNT [4]: 13.5 x10E3/uL | LYMPHOCYTE [4]: 85.5% | MEAN CORPUSCULAR HEMOGLOBIN [4]: 23.25 pg | MEAN CORPUSCULAR HEMOGLOBIN CONCENTRATION [4]: 39.9 G/DL | MEAN CORPUSCULAR VOLUME [4]: 58.3 fL | MONOCYTE [4]: 1.5% | NEUTROPHIL [4]: 12.5% | PLATELET COUNT [4]: 1096 x10E3/uL | ALANINE AMINOTRANSFERASE [4]: 36.5 u/L | ALBUMIN [4]: 3.75 G/DL | ALKALINE PHOSPHATASE [4]: 318 u/L | ASPARTATE AMINOTRANSFERASE [4]: 61.5 u/L | BLOOD UREA NITROGEN [4]: 14 mg/dL | CHLORIDE [4]: 104 MEQ/L | CHOLESTEROL [4]: 40.5 mg/dL | CREATINE PHOSPHOKINASE [4]: 138.5 u/L | CREATININE [4]: 0.55 mg/dL | GLUCOSE [4]: 161 mg/dL | PHOSPHORUS [4]: 10.3 mg/dL | POTASSIUM [4]: 6.15 MEQ/L | SODIUM [4]: 150 MEQ/L | TOTAL BILIRUBIN [4]: 0.55 mg/dL | TOTAL PROTEIN [4]: 6.2 G/DL | BASOPHIL [5]: 0% | EOSINOPHIL [5]: 1% | ERYTHROCYTE COUNT [5]: 6.37 x10E6/uL | HEMATOCRIT [5]: 38.8% | HEMOGLOBIN [5]: 15.33 G/DL | LEUKOCYTE COUNT [5]: 10.33 x10E3/uL | LYMPHOCYTE [5]: 83.67% | MEAN CORPUSCULAR HEMOGLOBIN [5]: 24.07 pg | MEAN CORPUSCULAR HEMOGLOBIN CONCENTRATION [5]: 39.53 G/DL | MEAN CORPUSCULAR VOLUME [5]: 60.9 fL | MONOCYTE [5]: 3.33% | NEUTROPHIL [5]: 12% | PLATELET COUNT [5]: 1127.67 x10E3/uL | ALANINE AMINOTRANSFERASE [5]: 31.33 u/L | ALBUMIN [5]: 3.87 G/DL | ALKALINE PHOSPHATASE [5]: 294.67 u/L | ASPARTATE AMINOTRANSFERASE [5]: 62.33 u/L | BLOOD UREA NITROGEN [5]: 14.33 mg/dL | CHLORIDE [5]: 103.67 MEQ/L | CHOLESTEROL [5]: 76 mg/dL | CREATINE PHOSPHOKINASE [5]: 156 u/L | CREATININE [5]: 0.7 mg/dL | GLUCOSE [5]: 185.67 mg/dL | PHOSPHORUS [5]: 12.2 mg/dL | POTASSIUM [5]: 7.33 MEQ/L | SODIUM [5]: 149.67 MEQ/L | TOTAL BILIRUBIN [5]: 0.53 mg/dL | TOTAL PROTEIN [5]: 6.23 G/DL | BASOPHIL [6]: 0% | EOSINOPHIL [6]: 0% | ERYTHROCYTE COUNT [6]: 6.33 x10E6/uL | HEMATOCRIT [6]: 38.27% | HEMOGLOBIN [6]: 15.1 G/DL | LEUKOCYTE COUNT [6]: 12.9 x10E3/uL | LYMPHOCYTE [6]: 81.33% | MEAN CORPUSCULAR HEMOGLOBIN [6]: 23.87 pg | MEAN CORPUSCULAR HEMOGLOBIN CONCENTRATION [6]: 39.47 G/DL | MEAN CORPUSCULAR VOLUME [6]: 60.5 fL | MONOCYTE [6]: 2.33% | NEUTROPHIL [6]: 16.33% | PLATELET COUNT [6]: 999.67 x10E3/uL | ALANINE AMINOTRANSFERASE [6]: 37 u/L | ALBUMIN [6]: 3.87 G/DL | ALKALINE PHOSPHATASE [6]: 349.67 u/L | ASPARTATE AMINOTRANSFERASE [6]: 67.67 u/L | BLOOD UREA NITROGEN [6]: 14 mg/dL | CHLORIDE [6]: 104 MEQ/L | CHOLESTEROL [6]: 70.33 mg/dL | CREATINE PHOSPHOKINASE [6]: 150.33 u/L | CREATININE [6]: 0.7 mg/dL | GLUCOSE [6]: 172 mg/dL | PHOSPHORUS [6]: 10.37 mg/dL | POTASSIUM [6]: 6.23 MEQ/L | SODIUM [6]: 149.67 MEQ/L | TOTAL BILIRUBIN [6]: 0.57 mg/dL | TOTAL PROTEIN [6]: 6.2 G/DL
